Legend:
[1] = test system: P. aeruginosa strain 6077; experiment: P. aeruginosa thermal injury model; type: in vivo, CF-1 mice; settings: 15 and 5 mg/kg; versus antibody-treated control; FIG. 8E
Protocol: FIG. 8 (A-G): Anti-Psl monoclonal antibodies Cam-003 and WapR-004 are active in a P. aeruginosa keratitis model and thermal injury model. Mice were treated with a control IgG1 antibody or Cam-003 at 45 mg/kg (A, B) or 15 mg/kg (C, D) or PBS or a control IgG1 antibody or Cam-003 at 45 mg/kg or WapR-004 at 45 mg/kg or 15 mg/kg or 5 mg/kg (F, G) 24 hours prior to infection with 6077 (O11-cytotoxic—2×10^6 CFU). Immediately before infection, three 1 mm scratches were made on the left cornea of each animal followed by topical application of P. aeruginosa in a 5 μl inoculum. 24 hours after infection, the corneal pathology scores were calculated followed by removal of the eye for determination of viable CFU. Differences in pathology scores and viable CFU were determined by the Mann-Whitney U-test. (A) P=0.0001, (B) P<0.0001, (C) P=0.0003, (D) P=0.0015. (F) and (G) Cam-003 (45 mg/kg) vs. WapR-004 (45 mg/kg): P=0.018; Cam-003 (45 mg/kg) vs. WapR-004 (15 mg/kg): P=0.0025; WapR-004 (45 mg/kg) vs. WapR-004 (15 mg/kg): P=0.1331; WapR-004 (5 mg/kg) vs. Ctrl: P<0.0001. Results are representative of five independent experiments. (E) Survival analysis from Cam-003 and R347 treated CF-1 mice in a P. aeruginosa thermal injury model after 6077 infection (2×10^5 CFU) (log-rank: R347 vs. Cam-003 15 mg/kg, P=0.0094; R347 vs. Cam-003 5 mg/kg, P=0.0017). […]

[2] = test system: Psl (enriched carbohydrate purified from PAO1ΔwbpL/algD/pelA); experiment: Psl capture binding assay (FORTEBIO OCTET 384); set-up: species or system Pseudomonas aeruginosa; settings: FIG. 3K
Protocol: To confirm that all of the antibodies bound to the same antigen, a Psl capture binding assay was performed using a FORTEBIO® OCTET® 384 instrument as described above. The antigen was proteinase K-treated enriched carbohydrate purified from PAO1ΔwbpL/algD/pelA (O-antigen-, alginate- and Pel exopolysaccharide-deficient). Individual antibodies were bound to aminopropylsilane biosensors followed by blocking and the addition of the enriched carbohydrate antigen. After washing to remove unbound antigen, binding of unlabelled mAbs to captured antigen was assessed.

With “Cam-003: human IgG1 anti-Psl monoclonal antibody, VH SEQ ID NO: 1 and VL SEQ ID NO: 2” as the substance, how does the “protection (survival)” value [1] read?
The value was “significant protection”.

And the “reactivity of unlabelled mAb to captured Psl” value [2]?
The value was “reacted”.

What about the “capture of Psl antigen by biosensor-bound antibody” value ([2]; antibody bound to aminopropylsilane biosensors) of the same substance?
The value was “capable of capturing antigen”.

— patent US10370436B2, “Anti-pseudomonas Psl binding molecules and uses thereof” (priority 2011, dated 2019)
